Key:
[1] = test system: GLP‐1R of Beta‐TC‐6 cells; experiment: Affinity test (cell-based competitive flow cytometric receptor binding assay); conditions: 10 nM fluorescein-labelled Ex-4, 0.5 h, 310 K, compared to Ex4-PEG-MA
Procedure: The binding ability of γ‐PGA‐Ex‐4 compounds to GLP‐1R expressed on β‐cells surface was examined in a competitive flow cytometric assay. This receptor binding assay was developed based on similar, receptor targeting studies, of Ex‐4 targeting[85] and folate targeting.[86] The relative competition capability to the target receptor, compared to Ex4‐PEG‐MA, was evaluated among γ‐PGA‐Ex‐4 conjugates at different degrees of functionalization. The obtained values were normalized with respect to the degree of functionalization of each bioconjugate, so that the comparison is not affected by the different amount of Ex‐4 molecules on each polymeric chain. GLP‐1R positive Beta‐TC‐6 cells were co‐incubated with fluorescein‐labelled Ex‐4 and the different Ex‐4 formulations, γ‐PGA‐Ex‐4‐1, γ‐PGA‐Ex‐4‐2, γ‐PGA‐Ex‐4‐3, and Ex4‐PEG‐MA or Ex‐4 as references. […]
5×10^5 cells were incubated with 10 nм fluorescein‐labelled Ex‐4 (Eurogentec) alone or together with the tested compounds at 310 K in RPMI supplemented with 10 % FBS. After 0.5 h the cells were washed with ice cold PBS and fluorescence of the cells was measured by flow cytometer (BD FACSCalibur). […] The binding ability of γ‐PGA‐Ex‐4 conjugates and peptides to the GLP‐1R positive cells was calculated based on the inhibition of the fluorescent Ex‐4 derived signal. […]

[2] = test system: dipeptidyl peptidase‐IV (DPP‐IV); conditions: natural ligand GLP-1 rapidly degraded by DPP-IV; cited from earlier work
Description: Type 2 diabetes is an unresolved pathology, related to genetic and environmental factors, which gradually decline the pancreatic islet functionality, finally culminating in a pathological phenomenon defined as hyperglycemia.[1] Pancreatic β‐cells take on a key role in the so‐called glucose homeostasis by secreting insulin and amylin.[2] A wide range of pharmacologic treatments have been developed, but none of them is considered the ultimate solution.[3] The classic target for diabetes 2 therapies is GLP‐1R, that stimulates insulin secretion upon interaction with its natural ligand, gluca ...

**Q.** For “HGEGTFTSDLSKQMEEE‐AVRLFIEWLys(PEG4‐Mal)KNGGPSSGAPPP S‐NH2 [Ex‐4‐PEG‐MA, exendin‐4(Lysine27‐PEG4‐maleimide), purchased from Caslo ApS]”, which “Binding / affinity towards GLP‐1R positive β‐cells (in words)” value [1] is on record?
**A.** The value was “still capable to bind GLP‐1R”.

**Q.** With glucagon‐like peptide 1 [GLP‐1] as the substance, how does the “time to degradation by DPP‐IV” value [2] read?
**A.** Its value is less than 2 min.
